According to patent US20030202935A1, “Composition and formulations and their use as nociceptic, anti-axniolytic and anabolic agents” (priority 2000, published 2003):

Legend:
[1] = system: Intracellular Adenosine; parameters: species or system Fischer 344 rats; conditions: rat, in vivo, po
Protocol: Folinic acid (50 mg/kg) was administered intraperitoneally once daily for fourteen days. […] Hearts were removed from animals and flash frozen in liquid nitrogen within 10 seconds of death. Liver and lungs were removed en bloc and flash frozen within 30 seconds of death. Brain tissue was subsequently dissected.

[2] = cited from earlier work

With Nc1nc(=O)c2c([nH]1)NCC(CNc1ccc(C(=O)N[C@@H](CCC(=O)O)C(=O)O)cc1)N2C=O (mixture of isomers) [Folinic Acid (F.A.), folinic acid] the “adenosine levels in the brain” value [1] was “dramatic increase”.

For Nc1ncnc2c1ncn2[C@@H]1O[C@H](CO)[C@@H](O)[C@H]1O [adenosine], the half life [2] is listed as “about a second”.
